From paper PMC8911579, “(−)-Naringenin 4′,7-dimethyl Ether Isolated from Nardostachys jatamansi Relieves Pain through Inhibition of Multiple Channels” (Molecules, 2022)

Key:
[1] = test system: motor coordination in mice; assay: rotarod test (motor impairment / neurotoxicity); type: in vivo, ICR mice
Method: To exclude possible non-specific muscle relaxant or sedative effects, the effects of (−)-NRG-DM on motor performance were evaluated in the rotarod test.
To determine the neurotoxicity effects of (−)-NRG-DM, the standardized rotarod test was conducted in male ICR mice weighted 20 ± 2 g. The mice were divided at random into 4 groups (n = 10 for each group). The mice were placed on a rotarod appliance (YLS-4C, Bio-will, Shanghai, China) with a rod of 3 cm diameter, rotating at a constant speed of 6 rpm. The day before the compound test, all mice were pre-trained and only the animals able to remain on the rod for at least 1 min every time in three consecutive trials (3 min) were retained. During the test, the mice were measured in the rotarod test 0.5 h and 1 h after intraperitoneal administration of (−)-NRG-DM. The animals unable to remain on the rod for 3 consecutive periods were considered motor coordination impaired.

[2] = test system: delayed rectifier potassium currents (IK) in DRG neurons; assay: whole-cell patch-clamp, delayed rectifier potassium currents in DRG neurons; type: cell-based, mouse
Text: (§1) The currents in mouse DRG neurons can be separated into IA and IK. They could be distinguished by applying voltage steps from a holding potential of −50 mV, at which IA was almost completely inactivated, while IK remained unchanged. Thereby, IA could be separated by subtracting IK from the total potassium currents. According to these electrophysiological characteristics, the effects of (−)-NRG-DM on potassium currents were examined (Figure 5A). […] Additionally, the effects of (−)-NRG-DM on the kinetics of the Kv channels were further characterized. The Kv currents were elicited by multiple 1500 ms depolarization pulses ranging from −80 mV to +90 mV in 10 mV increments from a holding potential of −80 mV. […] The values of V1/2 in the absence and presence of 10 µM (−)-NRG-DM were −6.43 ± 1.21 mV and −8.08 ± 2.02 mV, respectively (Figure 5D).
(§2) Dorsal root ganglia (DRG) were dissected from male C57BL/6 mice aged 4~6 weeks. The ganglia were first cut into small pieces and then digested at 37 °C for 20 min in DMEM containing 1 mg/mL collagenase type I and 0.25 mg/mL trypsin (Sigma-Aldrich). Subsequently, the digested small fragments were terminated and resuspended with DMEM/F12 growth medium (Gibco) supplemented with 10% fetal bovine serum (FBS) (Gibco). […]

[3] = target: Nav1.8 channel (Homo sapiens, UniProt Q9Y5Y9); assay: whole-cell patch-clamp, Nav1.8 stably expressed in HEK293 cells
Nav1.8 channel, sequence (Q9Y5Y9 whole entry): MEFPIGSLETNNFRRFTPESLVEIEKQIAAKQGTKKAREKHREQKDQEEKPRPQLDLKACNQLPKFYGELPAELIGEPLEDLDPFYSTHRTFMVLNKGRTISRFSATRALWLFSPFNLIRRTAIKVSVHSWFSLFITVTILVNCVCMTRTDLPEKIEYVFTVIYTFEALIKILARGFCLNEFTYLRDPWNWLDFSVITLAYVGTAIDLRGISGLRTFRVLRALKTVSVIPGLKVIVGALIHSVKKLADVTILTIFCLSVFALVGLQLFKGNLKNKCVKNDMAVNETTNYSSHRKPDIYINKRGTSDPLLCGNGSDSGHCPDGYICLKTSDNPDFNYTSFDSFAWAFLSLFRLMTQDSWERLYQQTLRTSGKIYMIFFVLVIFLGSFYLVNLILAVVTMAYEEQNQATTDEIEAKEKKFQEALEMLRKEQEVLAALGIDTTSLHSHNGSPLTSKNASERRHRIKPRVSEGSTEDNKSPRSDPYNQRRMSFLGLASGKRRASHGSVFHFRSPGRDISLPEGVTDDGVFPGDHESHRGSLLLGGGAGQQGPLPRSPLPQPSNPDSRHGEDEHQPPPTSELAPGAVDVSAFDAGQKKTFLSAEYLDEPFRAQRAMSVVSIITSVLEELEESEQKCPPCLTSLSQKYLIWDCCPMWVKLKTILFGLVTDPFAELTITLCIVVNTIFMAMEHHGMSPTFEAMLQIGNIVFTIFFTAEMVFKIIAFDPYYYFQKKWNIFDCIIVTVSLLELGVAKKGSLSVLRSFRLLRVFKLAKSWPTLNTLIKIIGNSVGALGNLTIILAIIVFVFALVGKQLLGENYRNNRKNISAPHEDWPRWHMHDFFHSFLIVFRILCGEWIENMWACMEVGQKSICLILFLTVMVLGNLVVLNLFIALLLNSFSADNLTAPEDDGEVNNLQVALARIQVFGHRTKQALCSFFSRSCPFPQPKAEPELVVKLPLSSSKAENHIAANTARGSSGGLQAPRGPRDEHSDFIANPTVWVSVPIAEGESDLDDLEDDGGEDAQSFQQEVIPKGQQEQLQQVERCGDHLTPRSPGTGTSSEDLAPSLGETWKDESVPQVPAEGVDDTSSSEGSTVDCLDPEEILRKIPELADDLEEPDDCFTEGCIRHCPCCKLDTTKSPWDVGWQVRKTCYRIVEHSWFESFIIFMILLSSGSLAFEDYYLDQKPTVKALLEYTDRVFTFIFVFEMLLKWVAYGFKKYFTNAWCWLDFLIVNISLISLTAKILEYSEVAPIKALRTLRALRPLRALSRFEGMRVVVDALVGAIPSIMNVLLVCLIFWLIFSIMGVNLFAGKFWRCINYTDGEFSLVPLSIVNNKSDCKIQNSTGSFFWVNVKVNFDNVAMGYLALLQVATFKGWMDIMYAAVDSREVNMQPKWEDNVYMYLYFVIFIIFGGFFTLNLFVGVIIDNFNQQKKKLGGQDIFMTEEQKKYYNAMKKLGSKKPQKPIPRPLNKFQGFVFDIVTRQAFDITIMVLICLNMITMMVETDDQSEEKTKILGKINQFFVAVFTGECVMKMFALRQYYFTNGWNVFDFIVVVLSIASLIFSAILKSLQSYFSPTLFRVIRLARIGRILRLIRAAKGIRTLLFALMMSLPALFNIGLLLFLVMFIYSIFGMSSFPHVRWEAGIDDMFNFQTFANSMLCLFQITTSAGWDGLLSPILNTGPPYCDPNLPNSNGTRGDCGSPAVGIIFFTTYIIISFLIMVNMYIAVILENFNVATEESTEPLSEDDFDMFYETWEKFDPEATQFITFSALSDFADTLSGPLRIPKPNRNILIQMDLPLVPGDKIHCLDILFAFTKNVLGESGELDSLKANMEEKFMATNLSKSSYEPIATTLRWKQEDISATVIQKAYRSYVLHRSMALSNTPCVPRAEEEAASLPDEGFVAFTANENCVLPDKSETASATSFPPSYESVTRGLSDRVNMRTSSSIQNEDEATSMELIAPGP

[4] = target: Nav1.7 channel (Homo sapiens, UniProt Q15858); assay: whole-cell patch-clamp, Nav1.7 stably expressed in HEK293 cells
Nav1.7 channel, sequence (Q15858 whole entry): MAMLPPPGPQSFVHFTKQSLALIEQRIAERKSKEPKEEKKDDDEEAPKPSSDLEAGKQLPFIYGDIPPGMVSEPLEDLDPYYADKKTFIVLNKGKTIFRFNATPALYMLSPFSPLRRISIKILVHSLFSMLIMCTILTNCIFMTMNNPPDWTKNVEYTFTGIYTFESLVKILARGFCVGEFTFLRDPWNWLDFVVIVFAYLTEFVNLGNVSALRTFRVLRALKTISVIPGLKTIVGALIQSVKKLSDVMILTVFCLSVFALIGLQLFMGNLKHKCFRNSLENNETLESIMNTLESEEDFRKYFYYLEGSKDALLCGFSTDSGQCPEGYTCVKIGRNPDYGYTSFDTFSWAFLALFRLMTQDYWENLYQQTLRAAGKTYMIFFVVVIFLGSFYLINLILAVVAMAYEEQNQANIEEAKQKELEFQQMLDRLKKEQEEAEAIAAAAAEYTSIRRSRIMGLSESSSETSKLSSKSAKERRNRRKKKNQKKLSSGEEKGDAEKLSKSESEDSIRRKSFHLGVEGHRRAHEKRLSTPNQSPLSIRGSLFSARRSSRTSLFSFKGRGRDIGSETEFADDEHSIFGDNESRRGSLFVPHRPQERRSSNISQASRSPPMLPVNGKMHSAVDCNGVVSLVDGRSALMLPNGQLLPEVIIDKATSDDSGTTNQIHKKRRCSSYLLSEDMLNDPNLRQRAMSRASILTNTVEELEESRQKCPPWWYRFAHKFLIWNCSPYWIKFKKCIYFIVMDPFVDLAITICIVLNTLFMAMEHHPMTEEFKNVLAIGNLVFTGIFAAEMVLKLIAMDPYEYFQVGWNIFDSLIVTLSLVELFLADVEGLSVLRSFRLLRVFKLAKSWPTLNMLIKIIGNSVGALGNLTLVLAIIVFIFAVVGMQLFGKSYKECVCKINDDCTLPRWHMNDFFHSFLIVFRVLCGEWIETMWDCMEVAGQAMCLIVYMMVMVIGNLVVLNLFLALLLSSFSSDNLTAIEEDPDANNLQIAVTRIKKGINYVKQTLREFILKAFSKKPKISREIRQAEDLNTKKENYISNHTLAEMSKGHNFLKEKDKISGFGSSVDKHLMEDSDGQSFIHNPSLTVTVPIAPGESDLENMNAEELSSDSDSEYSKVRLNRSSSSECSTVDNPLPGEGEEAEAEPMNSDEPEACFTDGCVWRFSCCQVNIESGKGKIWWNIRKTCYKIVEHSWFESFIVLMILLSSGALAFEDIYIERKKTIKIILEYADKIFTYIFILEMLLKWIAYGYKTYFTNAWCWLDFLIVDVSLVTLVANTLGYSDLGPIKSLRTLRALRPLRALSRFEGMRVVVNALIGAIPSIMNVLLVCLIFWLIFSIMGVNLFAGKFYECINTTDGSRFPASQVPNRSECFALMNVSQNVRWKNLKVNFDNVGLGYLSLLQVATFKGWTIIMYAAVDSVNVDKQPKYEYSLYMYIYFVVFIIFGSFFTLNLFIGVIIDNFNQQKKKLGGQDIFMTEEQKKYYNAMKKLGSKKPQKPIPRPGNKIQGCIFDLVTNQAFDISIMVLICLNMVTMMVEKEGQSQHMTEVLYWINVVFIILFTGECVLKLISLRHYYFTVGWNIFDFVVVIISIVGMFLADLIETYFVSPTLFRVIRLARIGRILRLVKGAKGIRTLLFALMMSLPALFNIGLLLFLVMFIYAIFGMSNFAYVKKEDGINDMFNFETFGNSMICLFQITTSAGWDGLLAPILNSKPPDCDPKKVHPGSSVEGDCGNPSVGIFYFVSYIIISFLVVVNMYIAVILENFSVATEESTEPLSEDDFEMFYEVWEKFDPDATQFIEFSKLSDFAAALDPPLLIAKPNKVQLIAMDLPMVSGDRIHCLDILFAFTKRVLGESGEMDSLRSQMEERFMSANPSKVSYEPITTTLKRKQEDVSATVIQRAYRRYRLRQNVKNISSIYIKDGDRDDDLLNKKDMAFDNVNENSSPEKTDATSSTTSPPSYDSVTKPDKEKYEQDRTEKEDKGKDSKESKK

[5] = test system: formalin-induced inflammatory pain; assay: formalin-induced mouse inflammatory pain model; type: in vivo, ICR mice; settings: phase I and phase II
Method: The formalin test is a classical inflammatory pain model which represents somatic pain. Intraplantar injection of formalin results in a typical two-stage nociceptive behavior, which is characterized by licking and biting of the injected paw. The first phase (0~10 min) mainly reflects nociceptive pain, while the second phase (11~60 min) represents the inflammatory responses. In our study, we tested the effects of (−)-NRG-DM on formalin-induced inflammatory pain in mice. (−)-NRG-DM at 30 mg/kg and 50 mg/kg body weight were individually intraperitoneally administrated 30 min before injection of 1% formalin solution.
Adult male ICR mice weighing 20 ± 2 g were randomly divided into 3 groups (n = 10 for each group) and acclimatized in a transparent observation chamber for at least 30 min before the experiment. Mice were intraperitoneally administrated with vehicle or (−)-NRG-DM (30 or 50 mg/kg) 30 min prior to formalin injection. Then, 1% formalin solution (20 μL per site) was subcutaneously injected into the plantar of the left hind paw to induce acute inflammatory pain. Immediately, mice were put back into the observation chambers. Nociception caused by formalin was assessed by scoring painful behaviors and licking time over a period of 60 min. […]

[6] = test system: native Nav currents in DRG neurons; assay: whole-cell patch-clamp, native sodium currents in DRG neurons; type: cell-based, mouse
Method: A reduction in amplitudes of action potentials manifested that (−)-NRG-DM may inhibit native sodium currents, which are mainly involved in the rising phase of an action potential. To record native sodium currents in acutely isolated DRG neurons, a 50 ms test pulse depolarized to −20 mV from a holding potential of −90 mV was applied. […] To understand how (−)-NRG-DM inhibited Nav channels, the effects of 30 µM compound (−)-NRG-DM on Nav channel kinetics were further characterized. […] In contrast to the lack of effect on the Nav channel activation, (−)-NRG-DM caused a depolarization shift of the steady-state inactivation. The V1/2 value was shifted from −65.72 ± 1.74 mV to −55.34 ± 2.14 mV by 30 µM (−)-NRG-DM (Figure 6G).
Dorsal root ganglia (DRG) were dissected from male C57BL/6 mice aged 4~6 weeks. The ganglia were first cut into small pieces and then digested at 37 °C for 20 min in DMEM containing 1 mg/mL collagenase type I and 0.25 mg/mL trypsin (Sigma-Aldrich). Subsequently, the digested small fragments were terminated and resuspended with DMEM/F12 growth medium (Gibco) supplemented with 10% fetal bovine serum (FBS) (Gibco). Finally, the dissociated DRG neurons were seeded onto 24-well plates with poly-L-lysine-coated coverslips and placed in a 37 °C, 5% CO2 incubator for at least 1 h before electrophysiological experiments.

[7] = test system: transient outward potassium currents (IA) in DRG neurons; assay: whole-cell patch-clamp, transient outward potassium currents in DRG neurons; type: cell-based; settings: Mus musculus, DRG neuron; n = 5
Text: as §1, §2

[8] = Mus musculus, DRG neuron, n = 5

COc1ccc([C@H]2CC(=O)c3c(O)cc(OC)cc3O2)cc1 [(−)-NRG-DM, (−)-naringenin 4′,7-dimethyl ether] was tested. Which “Fall nFall /nTest” value ([1]; 100 mg/kg i.p., 0.5 h) did it give?
Its value is 0/10.

And the “Motor Impairment (%)” value ([1]; 100 mg/kg i.p., 0.5 h)?
Its value is 0%.

And the “Fall nFall /nTest” value ([1]; 100 mg/kg i.p., 1 h)?
Its value is 0/10.

And the “Motor Impairment (%)” value ([1]; 100 mg/kg i.p., 1 h)?
Its value is 0%.

And the “ability to remain on the rotating rod” value ([1]; 100 mg/kg, 200 mg/kg, or 400 mg/kg i.p.)?
The value was “no significant effects”.

What about the “Fall nFall /nTest” value ([1]; 200 mg/kg i.p., 0.5 h) of the same molecule?
Its value is 1/10.

What about the “Motor Impairment (%)” value ([1]; 200 mg/kg i.p., 0.5 h) of the same molecule?
The value was 10%.

And the “Fall nFall /nTest” value ([1]; 200 mg/kg i.p., 1 h)?
The value was 0/10.

And the “Motor Impairment (%)” value ([1]; 200 mg/kg i.p., 1 h)?
Its value is 0%.

What about the “Fall nFall /nTest” value ([1]; 400 mg/kg i.p., 0.5 h) of the same molecule?
Its value is 0/10.

And the “Motor Impairment (%)” value ([1]; 400 mg/kg i.p., 0.5 h)?
Its value is 0%.

What about the “Fall nFall /nTest” value ([1]; 400 mg/kg i.p., 1 h) of the same molecule?
The value was 0/10.

And the “Motor Impairment (%)” value ([1]; 400 mg/kg i.p., 1 h)?
The value was 0%.

What about the signs of toxicity ([1]; 100, 200, 400 mg/kg i.p., during rotarod test (0.5 and 1 h) and 24 h after administration) of the same molecule?
Its signs of toxicity is “no sign of toxicity”.

What about the IC50 [2, 8] of the same molecule?
Its IC50 is 5.1 ± 0.04 µM.

What about the “reduction in IK currents” value ([2]; at plasma concentration (around 7 µM)) of the same molecule?
The value was “around 58%”.

And the inhibitory ratio ([3]; 30 µM)?
Its inhibitory ratio is 44 ± 3%.

What about the IDrug/IControl ([3]; 30 μM, HEK293) of the same molecule?
Its IDrug/IControl is 0.56 ± 0.03.

And the “V1/2 of steady-state inactivation of Nav1.8” value ([3]; 30 µM, control −48.58 ± 0.67 mV)?
The value was −53.37 ± 0.70 mV.

And the inhibitory ratio ([4]; 30 µM)?
The inhibitory ratio was 39 ± 5%.

And the IDrug/IControl ([4]; 30 μM, HEK293)?
The IDrug/IControl was 0.61 ± 0.05.

What about the “selectivity Nav1.7 vs Nav1.8” value ([4]; 30 μM, no significant difference between Nav1.7 and Nav1.8) of the same molecule?
The value was “non-selective Nav channel inhibitor”.

And the “painful behaviors (licking time and pain score)” value ([5]; 30 mg/kg i.p. 30 min before 1% formalin)?
The value was “only had a significant influence in phase I”.

What about the “painful behaviors (licking time and overall pain score)” value ([5]; 50 mg/kg i.p. 30 min before 1% formalin) of the same molecule?
Its value is “significantly attenuated painful behaviors”.

What about the “V1/2 of activation, total Nav currents” value ([6]; 30 μM, control −15.34 ± 0.58 mV) of the same molecule?
The value was −15.23 ± 0.56 mV.

What about the “V1/2 of steady-state inactivation, total Nav currents” value ([6]; 30 µM, control −65.72 ± 1.74 mV) of the same molecule?
Its value is −55.34 ± 2.14 mV.

What about the IC50 [6, 8] of the same molecule?
Its IC50 is 34.78 ± 0.14 µM.

What about the “reduction in INa” value ([6]; at plasma concentration from pharmacokinetic study (around 7 µM)) of the same molecule?
The value was “around 28%”.

And the IC50 [7]?
The IC50 was 119.9 ± 0.03 µM.
